According to patent US20070275936A1, “Formulations and Treatment Methods” (priority 1998, published 2007):

Columns and labels:
Plasmodium berghei = test: Lewis rat in vivo parasitemia study; conditions: Lewis rats
NK cell = NK cell counts in HIV/HCV infected patient dosed I.V. with BrEA; assay type: in vivo, human; conditions: predosing 28
Experimental: A patient infected with HIV and HCV was dosed I.V. with BrEA for 3 consecutive days using a formulation that contained 20 mg/mL BrEA in 45% w/v hydroxypropyl-β-cyclodextrin and saline. Four mL of the formulation (80 mg BrEA) was administered to the patient every 4 hours during the 3 day treatment period. The patient's predosing HCV level was 6.5 Log10 as measured by PCR and the HCV level was 6.2 Log10 on the first day of dosing, 5.5 Log10 on the 3rd day of dosing and 4.9 Log10 three days after the last dose was administered. HIV RNA levels as measured by PCR was 5.2 Log10 (predosing), 5.8 Log10 (first day), 5.9 Log10 (third day) and 5.4 Log10 (day 6). The NK cell counts (cells/mm^3) were 28, 41 and 38 at predosing, day 0 and day 3.

[1] = Plasma pharmacokinetics of 14C BrEA in Rhesus Monkeys; assay type: in vivo; conditions: 1 mg/kg s.c. 14C BrEA
Experimental: A pharmacokinetic analysis of ^14C BrEA in plasma was conducted in two female Rhesus Monkeys. Trace labeled compound (16α-bromo-3-beta-hydroxy-5α-[4-^14C]-androstan-17-one [50 mCi/mmole]) was used at a dose of 1 mg/kg as a subcutaneous injection in the scapular region using an injection volume of 1 mL/kg. The BrEA was formulated in 25% polyethylene glycol 300, 12.5% absolute ethanol, 5% benzyl benzoate, and qs with propylene glycol. 40 μCi were injected per animal. Blood samples were taken at 0, 0.5, 1, 2, 4, 8, and 24 hours for determination of ^14C activity. The radioactivity in the plasma rose to near peak concentration in 8 hours and remained at approximately the same level through the end of the study at 24 hours.

P. falciparum = test: Intravenous BrEA malaria patient trial; assay type: in vivo; conditions: day 14, two patients
Experimental: Response to drug treatment was graded as per World Health Organization criteria (WHO 1973) in infected patients. Evaluation of therapeutic response was determined using the parasitic and fever clearance times. […]
Microscopy. […] Parasitemia was quantified in thin films by counting 2000 red blood cells in clear contiguous fields and finding the proportion that was parasitized. In thick films, parasitemia was quantified by counting parasites against leukocytes. […] Approximately 5000 erythrocytes were counted in clear contiguous fields 24 and 48 h after incubation of blood obtained at each time point and graded for maturity into tiny rings, small rings, large rings, pigmented trophozoites and schizonts. […]
Calculation of Parameters. […] Parasitemia quantification and clinical examination were done once every 6 hours for the first 72 hours, followed by daily assessment of the parameters up to day 7 (168 hrs) and thereafter on day 14.
Blood films were Giemsa-stained and parasitemia quantification was done in thick films by counting 2000 parasites against leukocytes, and the thin films by finding the proportion of infected red blood cells. […]

C[C@]12CC[C@H](O)C[C@@H]1CC[C@@H]1[C@@H]2CC[C@]2(C)C(=O)[C@H](Br)C[C@@H]12 [BrEA, 16α-bromo-3β-hydroxy-5α-androstane-17-one]
% RBC parasitemia (Plasmodium berghei; Day 4, high dose 60 mg/kg i.v. days 0-3, saline control 16%): 7% | % RBC parasitemia (Plasmodium berghei; Day 4, low dose 30 mg/kg i.v. days 0-3, saline control 16%): 9% | % RBC parasitemia (Plasmodium berghei; Day 11, high dose 60 mg/kg i.v. days 0-3, saline control 36%): 11% | % RBC parasitemia (Plasmodium berghei; Day 11, low dose 30 mg/kg i.v. days 0-3, saline control 36%): 12% | NK cell counts (NK cell; day 0): 41 cells/mm^3 | NK cell counts (NK cell; day 3): 38 cells/mm^3 | time for plasma radioactivity to rise to near peak concentration [1]: 8 h | parasite clearance rate (P. falciparum): 100%
